{
  "source": "paper PMC7972453",
  "about": "“The allosteric modulation of complement C5 by knob domain peptides” (eLife, 2021)",
  "test_system": "sheep erythrocytes (classical pathway haemolysis)",
  "assay": "Inhibition of classical pathway haemolysis",
  "assay_type": "cell-based, sheep erythrocytes; normal human serum",
  "conditions": "1% serum",
  "description": "GVB^++ or Mg EGTA buffers, which had been supplemented with 2.5% glucose (w/v), were used for the CP and AP assays, respectively. For the AP, 150 µL of rabbit erythrocytes (TCS Biosciences, Botolph Claydon, UK) were washed twice, by addition of 1 mL of buffer and centrifugation at 800 ×g for 1 min, and finally resuspended in 500 µL of buffer. For the CP, 150 µL sheep erythrocytes (TCS Biosciences, Botolph Claydon, UK) were washed twice with 1 mL of buffer and sensitised with a 1/1000 dilution of rabbit anti-sheep red blood cell stroma antibody (S1389, Sigma Aldrich, Gillingham, UK). After a 30°C/30 min incubation, with shaking, the cells were rewashed and resuspended with 500 µL of buffer. Serial dilutions of peptide were prepared in the respective buffers and normal human serum was added at 1% for the CP and 4.5% for the AP (corresponding to CH50 of the serum). Also, 90 µL of peptide–serum mixtures were plated into a V-bottom 96-well microtiter plate (Corning) and 10 µL of erythrocytes were added. Plates were incubated for 30 min at 37°C, with shaking. Finally, 50 µL of buffer was added, the plates centrifuged at 800 ×g, and 80 µL of supernatant was transferred to an ELISA plate (Nunc) and absorbance measured at 405 nm.\nTable 1.7. Inhibition of classical pathway haemolysis.",
  "note": "Bridges are numbered along the chain shown (N, C = ends). Where no end group is shown, it is not given here.",
  "data": [
    {"sequence": "SVCPDGFDWGYGCAAGSSRFCTRHDWCCYDERADSHTYGFCTGNRVENLYFQ (disulfide 3-28, 13-21, 27-41) [K8]", "values": [
      {"measurement": "Average Emax", "setting": "CP haemolysis, n=3, ND* = Not detected", "value": 95.6, "unit": "%"},
      {"measurement": "inhibition of CP haemolysis (in words)", "setting": "sheep erythrocytes", "value": "efficacious in the CP assay"}
    ]}
  ]
}
